Results reported in US9371265B2, “Compositions and methods related to inhibitors of JAK kinase” (EP PHARMA, INC., priority 2012, dated 2016).

How the values were obtained:
MLK1 = MLK1 (Homo sapiens, UniProt P80192); assay: Kinase panel: MLK1; format: biochemical; conditions: 10 μM EP009
Protocol: (§1) Achieving JAK3 selectivity remains a significant challenge in the development of new small molecules for the treatment of cancer and immune-derived diseases. As such, the inventors employed cell-based screening assays of small-molecule libraries based upon the chemical scaffold of the established JAK3 inhibitor NC1153 (Stepkowski et al., J Immunol. (2005), 175(7):4236-4246) EP009 (FIG. 2A) was selected as a lead compound due to improved intrinsic stability (>95% purity in various solvents at 37° C. for 24 hours; FIG. 3) and high-degree of JAK3 selectivity. To test JAK3 versus JAK2 specificity of EP009, the IL-2/JAK3-dependent Kit225, and IL-3/JAK2-dependent BaF/3 cell lines were used. Kit225 and BaF/3 cells growing in the presence of IL-2 or IL-3, respectively, were treated with ascending concentrations of EP009 for 12 hours and cellular JAK3 and JAK2 tyrosine phosphorylation levels detected by Western blot analysis (FIGS. 2B and 2C). Following densitometric analysis, EP009 was determined to dose-dependently reduce IL-2-mediated JAK3 tyrosine phosphorylation with a cellular 50% inhibitory concentration (IC50) between 10 and 20 μM (FIG. 2B). […] To globally evaluate specificity, the inhibitory activity of EP009 was measured against a panel of protein kinases distributed throughout the kinome using the scanEDGE profiling service (KINOMEscan). […]

immunopurified JAK3 = molecular target: T1, immunopurified JAK3 (Homo sapiens, UniProt P52333); assay: In vitro JAK3 autokinase assay; format: biochemical; conditions: 1 μM ATP, densitometry analysis
T1 construct: immunopurified JAK3 from YT cells resuspended in kinase buffer; endogenous in cells; host or cells: YT cells (immunoprecipitate)
T1 sequence (P52333 whole entry): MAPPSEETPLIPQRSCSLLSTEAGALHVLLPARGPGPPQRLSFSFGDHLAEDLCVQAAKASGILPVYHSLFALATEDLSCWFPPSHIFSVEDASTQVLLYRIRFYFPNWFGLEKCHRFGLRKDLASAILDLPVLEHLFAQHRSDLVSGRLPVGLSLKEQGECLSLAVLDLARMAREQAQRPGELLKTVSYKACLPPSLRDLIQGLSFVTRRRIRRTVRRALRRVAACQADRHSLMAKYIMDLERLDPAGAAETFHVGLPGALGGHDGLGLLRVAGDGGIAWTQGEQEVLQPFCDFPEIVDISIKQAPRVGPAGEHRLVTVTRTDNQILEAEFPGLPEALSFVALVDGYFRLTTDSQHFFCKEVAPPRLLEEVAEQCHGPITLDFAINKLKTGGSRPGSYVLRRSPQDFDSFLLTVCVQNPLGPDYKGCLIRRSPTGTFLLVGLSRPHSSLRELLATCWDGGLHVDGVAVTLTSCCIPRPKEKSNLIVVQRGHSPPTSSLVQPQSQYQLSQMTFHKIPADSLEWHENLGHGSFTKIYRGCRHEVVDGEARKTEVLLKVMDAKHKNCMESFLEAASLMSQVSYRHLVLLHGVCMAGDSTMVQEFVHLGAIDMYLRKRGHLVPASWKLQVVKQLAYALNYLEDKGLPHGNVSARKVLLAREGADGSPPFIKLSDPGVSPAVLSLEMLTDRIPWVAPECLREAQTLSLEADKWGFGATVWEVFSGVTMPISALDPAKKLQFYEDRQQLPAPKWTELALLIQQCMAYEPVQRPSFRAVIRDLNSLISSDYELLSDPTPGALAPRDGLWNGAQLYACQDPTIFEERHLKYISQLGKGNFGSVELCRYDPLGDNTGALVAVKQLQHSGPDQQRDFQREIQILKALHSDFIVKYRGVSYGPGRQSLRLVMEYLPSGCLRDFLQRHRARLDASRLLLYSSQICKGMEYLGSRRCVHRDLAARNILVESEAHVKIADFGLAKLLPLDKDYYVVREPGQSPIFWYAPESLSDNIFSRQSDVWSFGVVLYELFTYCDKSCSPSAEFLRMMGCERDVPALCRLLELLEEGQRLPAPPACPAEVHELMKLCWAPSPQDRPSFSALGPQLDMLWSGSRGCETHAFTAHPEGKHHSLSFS

CREB = assay: Phospho-CREB in SU-DHL-1 cells (Luminex multiplex); format: cell-based, human; conditions: 24 hours
Protocol: FIGS. 8A-8F. Effect of EP009 on ALCL cells is mediated through selective activation of ERK1/2 and JNK1/2 stress signaling pathways, and inhibition of p70 S6 kinase growth signaling pathways. SU-DHL-1 cells were treated with vehicle (PBS) or increasing amounts of EP009 (0-50 μM) for 24 hours. Cells were then lysed, clarified, and subjected to Luminex multiplex analysis to detect phosphorylated (A) ERK1/2, (B) JNK1/2, (C) p70 S6 kinase, (D) IκBα, (E) CREB, and (F) p38. Values represent mean fluorescence intensity (MFI) normalized to corresponding GAPDH MFI, while error bars represent the standard deviation (n=2). Representative data from two independent experiments are shown. Statistical significance was determined using Student's t-test. (*, p<0.05).
The MILLIPLEX MAP 8-plex Multi-Pathway Signaling Phosphoprotein kit (Millipore) was used to detect phosphorylated ERK1/2 (Thr185/Tyr187), STAT3 (Ser727), JNK1/2 (Thr183/Tyr185), p70 S6 kinase (Thr412), IκBα (Ser32), STAT5A/B (Tyr694/699), CREB (Ser133), and p38 (Thr180/Tyr182). The MILLIPLEX MAP 5-plex STAT Phosphoprotein kit (Millipore) was used to detect phosphorylated STAT1 (Tyr701), STAT2 (Tyr690), STAT3 (Tyr705), STAT5A/B (Tyr694/699), and STAT6 (Tyr641). The MILLIPLEX MAP Human Apoptosis 3-plex kit (Millipore) was used to detect cleaved PARP, cleaved Caspase 3, and total GAPDH for protein normalization.

PLK3 = PLK3 (Homo sapiens, UniProt Q9H4B4); assay: Kinase panel: PLK3; format: biochemical; conditions: 10 μM EP009
PLK3, sequence (Q9H4B4 whole entry): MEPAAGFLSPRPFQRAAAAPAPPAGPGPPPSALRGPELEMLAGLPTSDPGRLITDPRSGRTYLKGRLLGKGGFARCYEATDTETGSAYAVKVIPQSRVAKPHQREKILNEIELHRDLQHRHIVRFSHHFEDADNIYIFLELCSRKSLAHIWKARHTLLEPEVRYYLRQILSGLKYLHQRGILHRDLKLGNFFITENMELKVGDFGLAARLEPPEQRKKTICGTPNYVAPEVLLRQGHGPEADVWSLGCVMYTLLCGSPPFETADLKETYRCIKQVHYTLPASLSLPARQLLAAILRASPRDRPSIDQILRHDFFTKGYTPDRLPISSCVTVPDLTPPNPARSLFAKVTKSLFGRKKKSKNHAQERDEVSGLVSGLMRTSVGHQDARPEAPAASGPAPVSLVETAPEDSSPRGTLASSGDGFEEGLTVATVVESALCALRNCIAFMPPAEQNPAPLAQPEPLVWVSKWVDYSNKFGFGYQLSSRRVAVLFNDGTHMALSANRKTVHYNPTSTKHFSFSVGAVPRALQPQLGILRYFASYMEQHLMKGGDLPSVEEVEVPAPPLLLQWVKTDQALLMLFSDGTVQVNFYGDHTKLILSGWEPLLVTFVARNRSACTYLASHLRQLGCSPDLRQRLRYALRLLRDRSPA
Protocol: as §1

TGFBR1 = TGFBR1 (Homo sapiens, UniProt P36897); assay: Kinase panel: TGFBR1; format: biochemical; conditions: 10 μM EP009
TGFBR1, sequence (P36897 34-503): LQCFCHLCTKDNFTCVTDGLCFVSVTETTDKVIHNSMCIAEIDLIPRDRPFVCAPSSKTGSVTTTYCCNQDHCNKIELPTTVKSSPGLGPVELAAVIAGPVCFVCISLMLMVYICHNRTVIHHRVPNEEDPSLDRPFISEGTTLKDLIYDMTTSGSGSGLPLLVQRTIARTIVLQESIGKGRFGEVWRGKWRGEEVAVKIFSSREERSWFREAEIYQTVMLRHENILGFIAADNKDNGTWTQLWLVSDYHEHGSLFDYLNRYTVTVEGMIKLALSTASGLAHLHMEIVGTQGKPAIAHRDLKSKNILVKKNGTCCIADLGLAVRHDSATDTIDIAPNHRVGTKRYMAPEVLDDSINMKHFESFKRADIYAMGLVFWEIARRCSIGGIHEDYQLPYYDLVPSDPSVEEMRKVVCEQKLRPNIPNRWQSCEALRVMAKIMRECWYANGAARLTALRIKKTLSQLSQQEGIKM
Protocol: as §1

PIK3CG = PIK3CG (Homo sapiens, UniProt P48736); assay: Kinase panel: PIK3CG; format: biochemical; conditions: 10 μM EP009
Protocol: as §1

FAK = FAK (Homo sapiens, UniProt Q05397); assay: Kinase panel: FAK; format: biochemical; conditions: 10 μM EP009
Protocol: as §1

ROCK2 = ROCK2 (Homo sapiens, UniProt O75116); assay: Kinase panel: ROCK2; format: biochemical; conditions: 10 μM EP009
Protocol: as §1

PDGFRA = PDGFRA (Homo sapiens, UniProt P16234); assay: Kinase panel: PDGFRA; format: biochemical; conditions: 10 μM EP009
PDGFRA, sequence (P16234 24-1089): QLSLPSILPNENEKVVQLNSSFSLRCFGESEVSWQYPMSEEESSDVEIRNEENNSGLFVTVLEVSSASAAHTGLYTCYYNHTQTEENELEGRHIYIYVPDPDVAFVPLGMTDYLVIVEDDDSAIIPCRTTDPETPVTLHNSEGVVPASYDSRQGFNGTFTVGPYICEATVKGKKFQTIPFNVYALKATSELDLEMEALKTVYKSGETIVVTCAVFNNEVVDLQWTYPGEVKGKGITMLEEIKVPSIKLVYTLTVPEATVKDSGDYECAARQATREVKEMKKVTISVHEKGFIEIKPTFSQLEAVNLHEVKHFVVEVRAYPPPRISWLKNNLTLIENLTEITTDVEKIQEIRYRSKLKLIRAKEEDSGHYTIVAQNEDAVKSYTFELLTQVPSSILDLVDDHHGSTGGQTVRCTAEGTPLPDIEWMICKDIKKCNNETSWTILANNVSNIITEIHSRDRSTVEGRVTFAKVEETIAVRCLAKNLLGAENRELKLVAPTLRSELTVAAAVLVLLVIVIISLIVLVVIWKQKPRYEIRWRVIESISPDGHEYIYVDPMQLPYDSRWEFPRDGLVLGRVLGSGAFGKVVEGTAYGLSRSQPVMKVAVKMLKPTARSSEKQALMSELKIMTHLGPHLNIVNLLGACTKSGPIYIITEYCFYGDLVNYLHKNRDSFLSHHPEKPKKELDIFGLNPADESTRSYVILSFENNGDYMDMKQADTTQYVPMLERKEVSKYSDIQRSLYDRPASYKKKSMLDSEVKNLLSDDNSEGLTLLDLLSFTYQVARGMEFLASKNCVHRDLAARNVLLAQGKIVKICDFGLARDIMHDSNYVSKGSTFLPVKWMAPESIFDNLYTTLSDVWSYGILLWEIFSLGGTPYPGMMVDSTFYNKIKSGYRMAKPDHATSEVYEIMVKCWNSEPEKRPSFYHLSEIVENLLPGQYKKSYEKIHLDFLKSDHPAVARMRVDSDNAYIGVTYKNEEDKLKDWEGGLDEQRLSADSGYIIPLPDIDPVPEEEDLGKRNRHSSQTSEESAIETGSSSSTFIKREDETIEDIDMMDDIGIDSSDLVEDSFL
Protocol: as §1

PIM3 = PIM3 (Homo sapiens, UniProt Q86V86); assay: Kinase panel: PIM3; format: biochemical; conditions: 10 μM EP009
Protocol: as §1

MLK1, sequence (P80192 whole entry): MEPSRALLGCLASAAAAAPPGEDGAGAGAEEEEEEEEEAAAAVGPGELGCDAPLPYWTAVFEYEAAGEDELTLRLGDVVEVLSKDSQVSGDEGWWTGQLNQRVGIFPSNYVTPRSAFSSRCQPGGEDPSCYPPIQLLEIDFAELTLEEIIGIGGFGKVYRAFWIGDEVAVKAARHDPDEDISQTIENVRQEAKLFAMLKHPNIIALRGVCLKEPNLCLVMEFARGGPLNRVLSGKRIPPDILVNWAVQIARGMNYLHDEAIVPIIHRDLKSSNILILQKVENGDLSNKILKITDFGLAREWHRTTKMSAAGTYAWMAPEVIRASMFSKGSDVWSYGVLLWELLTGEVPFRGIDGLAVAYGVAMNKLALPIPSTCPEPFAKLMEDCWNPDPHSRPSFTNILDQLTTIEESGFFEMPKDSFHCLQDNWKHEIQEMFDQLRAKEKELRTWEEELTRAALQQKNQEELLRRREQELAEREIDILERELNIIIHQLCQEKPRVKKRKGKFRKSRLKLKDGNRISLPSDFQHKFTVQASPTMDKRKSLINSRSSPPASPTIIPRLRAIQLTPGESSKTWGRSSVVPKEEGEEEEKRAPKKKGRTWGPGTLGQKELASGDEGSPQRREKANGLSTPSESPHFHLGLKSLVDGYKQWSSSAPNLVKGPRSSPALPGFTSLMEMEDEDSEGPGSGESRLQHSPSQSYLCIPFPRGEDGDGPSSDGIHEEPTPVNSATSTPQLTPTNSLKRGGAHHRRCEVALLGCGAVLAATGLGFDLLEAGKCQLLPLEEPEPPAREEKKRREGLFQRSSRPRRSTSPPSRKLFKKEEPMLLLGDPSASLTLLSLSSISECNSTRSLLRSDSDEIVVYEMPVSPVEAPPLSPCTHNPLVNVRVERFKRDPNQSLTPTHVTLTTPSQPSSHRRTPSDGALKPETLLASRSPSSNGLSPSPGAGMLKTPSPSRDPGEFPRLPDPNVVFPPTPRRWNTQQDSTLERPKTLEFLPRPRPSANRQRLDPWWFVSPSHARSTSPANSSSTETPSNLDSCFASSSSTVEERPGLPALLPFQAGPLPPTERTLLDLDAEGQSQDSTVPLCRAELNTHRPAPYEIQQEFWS

C=C1CCCCCCCCCC(CO)C1=O (stereo not shown) [EP009, 2-(Hydroxymethyl)-12-methylenecyclododecanone]
Kinase Activity (% of Control) (MLK1): 100 % of Control
IC50 (immunopurified JAK3): 1 to 2.5 µM
CREB phosphorylation status (CREB): No statistically significant change
Kinase Activity (% of Control) (PLK3): 92 % of Control
Kinase Activity (% of Control) (TGFBR1): 100 % of Control
Kinase Activity (% of Control) (PIK3CG): 75 % of Control
Kinase Activity (% of Control) (FAK): 69 % of Control
Kinase Activity (% of Control) (ROCK2): 99 % of Control
Kinase Activity (% of Control) (PDGFRA): 100 % of Control
Kinase Activity (% of Control) (PIM3): 100 % of Control
